Patent US20230295131A1, “INHIBITORS OF RHO-ASSOCIATED COILED-COIL KINASE” (Angion Biomedica Corp., priority 2020, published 2023)

Tests used:
[1] = target: T1, ROCK1 (Homo sapiens, UniProt Q13464); assay: ROCK1 kinase binding affinity, DiscoverX KINOMEscan KdELECT; settings: 11-point 3-fold dilution
T1 construct: T7 phage fusion (kinase-tagged phage) or DNA tag for qPCR detection
In short: (§1)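 Competition binding of DNA- or phage-tagged kinase to immobilised ligand beads, with bound kinase quantified by qPCR of eluates.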

[2] = target: T2, ROCK2 (Homo sapiens, UniProt O75116); assay: ROCK2 kinase binding affinity, DiscoverX KINOMEscan KdELECT; settings: for Kd: KINOMEscan KdELECT, 11-point 3-fold dilution, read-out: Kd (μM) ROCK2; for ROCK2 Selectivity: selectivity for ROCK2 over ROCK1 from Kd
T2 construct: T7 phage fusion (kinase-tagged phage) or DNA tag for qPCR detection
T2 sequence (O75116 whole entry, the tested form may be a part): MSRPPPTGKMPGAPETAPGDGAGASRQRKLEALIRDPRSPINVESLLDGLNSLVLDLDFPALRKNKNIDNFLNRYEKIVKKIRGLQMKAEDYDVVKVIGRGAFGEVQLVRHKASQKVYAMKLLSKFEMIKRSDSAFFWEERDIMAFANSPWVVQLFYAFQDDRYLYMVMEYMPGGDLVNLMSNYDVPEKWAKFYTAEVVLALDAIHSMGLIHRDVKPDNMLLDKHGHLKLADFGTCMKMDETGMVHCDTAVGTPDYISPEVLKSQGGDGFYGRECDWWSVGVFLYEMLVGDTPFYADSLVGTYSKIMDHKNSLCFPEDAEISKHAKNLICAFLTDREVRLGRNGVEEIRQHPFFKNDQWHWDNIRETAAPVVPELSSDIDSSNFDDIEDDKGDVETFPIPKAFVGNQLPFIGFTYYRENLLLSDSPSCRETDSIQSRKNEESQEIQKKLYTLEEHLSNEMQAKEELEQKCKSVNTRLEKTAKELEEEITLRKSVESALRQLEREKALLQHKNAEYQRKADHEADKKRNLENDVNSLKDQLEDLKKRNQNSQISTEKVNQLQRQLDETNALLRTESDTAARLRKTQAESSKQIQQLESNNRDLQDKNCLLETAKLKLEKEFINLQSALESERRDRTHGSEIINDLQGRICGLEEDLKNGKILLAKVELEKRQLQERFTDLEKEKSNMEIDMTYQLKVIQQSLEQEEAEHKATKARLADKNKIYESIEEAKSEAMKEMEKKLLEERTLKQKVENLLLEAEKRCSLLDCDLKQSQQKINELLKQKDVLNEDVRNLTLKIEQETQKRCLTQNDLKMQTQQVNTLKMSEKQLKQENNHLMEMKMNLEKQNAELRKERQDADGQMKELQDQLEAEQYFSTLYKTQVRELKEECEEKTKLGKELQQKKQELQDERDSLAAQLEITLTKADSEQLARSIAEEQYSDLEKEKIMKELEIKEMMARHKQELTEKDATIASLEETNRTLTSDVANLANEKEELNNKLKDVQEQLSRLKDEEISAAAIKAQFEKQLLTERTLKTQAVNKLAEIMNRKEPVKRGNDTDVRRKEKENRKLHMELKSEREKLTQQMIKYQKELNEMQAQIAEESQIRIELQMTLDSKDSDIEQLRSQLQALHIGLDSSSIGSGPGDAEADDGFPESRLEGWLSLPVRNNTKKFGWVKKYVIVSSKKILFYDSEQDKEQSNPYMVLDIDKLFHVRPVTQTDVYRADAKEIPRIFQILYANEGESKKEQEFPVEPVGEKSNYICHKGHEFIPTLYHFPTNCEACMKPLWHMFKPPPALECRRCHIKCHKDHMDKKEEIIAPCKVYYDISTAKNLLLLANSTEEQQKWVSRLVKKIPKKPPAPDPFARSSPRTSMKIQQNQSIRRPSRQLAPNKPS
In short: as §1

T1 sequence (Q13464 whole entry, the tested form may be a part): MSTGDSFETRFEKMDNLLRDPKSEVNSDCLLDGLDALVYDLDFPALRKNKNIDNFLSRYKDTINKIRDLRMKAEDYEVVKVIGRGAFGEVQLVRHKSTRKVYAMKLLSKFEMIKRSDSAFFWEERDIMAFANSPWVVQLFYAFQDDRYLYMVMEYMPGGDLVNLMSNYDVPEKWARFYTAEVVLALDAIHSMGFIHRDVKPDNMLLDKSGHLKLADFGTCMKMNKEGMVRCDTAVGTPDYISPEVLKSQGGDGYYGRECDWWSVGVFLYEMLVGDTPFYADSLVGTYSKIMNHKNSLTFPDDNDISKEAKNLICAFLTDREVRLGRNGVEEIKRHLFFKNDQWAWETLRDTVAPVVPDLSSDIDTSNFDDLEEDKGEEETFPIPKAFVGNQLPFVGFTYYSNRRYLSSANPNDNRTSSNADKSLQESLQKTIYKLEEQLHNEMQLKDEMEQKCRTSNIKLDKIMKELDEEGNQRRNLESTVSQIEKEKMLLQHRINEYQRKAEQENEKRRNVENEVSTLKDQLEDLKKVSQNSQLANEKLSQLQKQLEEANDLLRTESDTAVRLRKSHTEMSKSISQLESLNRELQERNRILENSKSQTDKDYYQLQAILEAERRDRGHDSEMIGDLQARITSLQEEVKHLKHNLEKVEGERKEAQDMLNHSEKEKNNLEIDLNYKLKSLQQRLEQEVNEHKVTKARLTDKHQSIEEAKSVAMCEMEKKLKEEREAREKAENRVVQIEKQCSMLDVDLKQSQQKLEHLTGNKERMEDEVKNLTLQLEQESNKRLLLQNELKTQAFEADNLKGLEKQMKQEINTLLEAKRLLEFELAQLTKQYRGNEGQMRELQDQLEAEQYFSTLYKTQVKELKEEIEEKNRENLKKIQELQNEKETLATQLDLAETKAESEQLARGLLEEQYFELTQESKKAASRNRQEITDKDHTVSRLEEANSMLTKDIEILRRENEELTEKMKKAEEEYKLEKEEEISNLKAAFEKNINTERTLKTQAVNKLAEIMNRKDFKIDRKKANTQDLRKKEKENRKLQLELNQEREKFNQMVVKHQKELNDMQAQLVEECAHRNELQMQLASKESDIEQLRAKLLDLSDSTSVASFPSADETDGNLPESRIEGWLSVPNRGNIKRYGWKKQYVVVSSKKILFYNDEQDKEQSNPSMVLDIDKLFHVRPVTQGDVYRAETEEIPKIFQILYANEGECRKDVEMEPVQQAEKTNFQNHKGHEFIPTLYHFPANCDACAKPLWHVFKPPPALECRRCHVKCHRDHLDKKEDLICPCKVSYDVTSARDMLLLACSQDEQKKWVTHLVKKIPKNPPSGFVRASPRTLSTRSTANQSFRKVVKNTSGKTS

SMILES | Kd [1] [µM] | Kd [2] [µM] | ROCK2 Selectivity [2]
COc1cc(F)ccc1CNc1nccc(-c2nccc(C#Cc3ccc4[nH]ncc4c3)n2)n1 [Ex. 12, 4-((1H-Indazol-5-yl)ethynyl)-N-(4-fluoro-2-methoxybenzyl)-[2,4′-bipyrimidin]-2′-amine] | 1 to 9.9 | 0.01 to 0.099 | *** (151 to 500-fold selectivity for ROCK2)
O=C(CNc1nccc(-c2nccc(C#Cc3ccc4[nH]nc(F)c4c3)n2)n1)N1CCOCC1 [Ex. 77, 2-((4-((3-Fluoro-1H-indazol-5-yl)ethynyl)-[2,4′-bipyrimidin]-2′-yl)amino)-1-morpholinoethanone] | 10 to 100 | 0.01 to 0.099 | *** (151 to 500-fold selectivity for ROCK2)
Fc1cc(F)c(F)c(CNc2nccc(-c3nccc(C#Cc4ccc5[nH]ncc5c4)n3)n2)c1 [Ex. 37, 4-((1H-Indazol-5-yl)ethynyl)-N-(2,3,5-trifluorobenzyl)-[2,4′-bipyrimidin]-2′-amine] | 1 to 9.9 | 0.01 to 0.099 | *** (151 to 500-fold selectivity for ROCK2)
Cc1ccc(CNc2nccc(-c3nccc(C#Cc4ccc5[nH]ncc5c4)n3)n2)nc1 [Ex. 24, 4-((1H-Indazol-5-yl)ethynyl)-N-((5-methylpyridin-2-yl)methyl)-[2,4′-bipyrimidin]-2′-amine] | 0.1 to 0.99 | < 0.01 | ** (50 to 150-fold selectivity for ROCK2)
Fc1ccc(CNc2nccc(-c3nccc(C#Cc4cc(F)c5[nH]ncc5c4)n3)n2)nc1 [Ex. 36, 4-((7-Fluoro-1H-indazol-5-yl)ethynyl)-N-((5-fluoropyridin-2-yl)methyl)-[2,4′-bipyrimidin]-2′-amine] | 1 to 9.9 | 0.01 to 0.099 | ** (50 to 150-fold selectivity for ROCK2)

Continued, in another order:

Kd [1] [µM] | Kd [2] [µM] | SMILES | ROCK2 Selectivity [2]
1 to 9.9 | < 0.01 | O[C@H]1CC[C@H](Nc2nccc(-c3nccc(C#Cc4ccc5[nH]ncc5c4)n3)n2)C1 [Ex. 90, (1S,3S)-3-((4-((1H-Indazol-5-yl)ethynyl)-[2,4′-bipyrimidin]-2′-yl)amino)cyclopentanol] | *** (151 to 500-fold selectivity for ROCK2)
0.1 to 0.99 | < 0.01 | O=S1(=O)CC[C@H](Nc2nccc(-c3nccc(C#Cc4ccc5[nH]ncc5c4)n3)n2)C1 [Ex. 83, (S)-3-((4-((1H-Indazol-5-yl)ethynyl)-[2,4′-bipyrimidin]-2′-yl)amino)tetrahydrothiophene 1,1-dioxide] | *** (151 to 500-fold selectivity for ROCK2)
0.1 to 0.99 | < 0.01 | O=C(CNc1nccc(-c2nccc(C#Cc3ccc4[nH]ncc4c3)n2)n1)N1CC[C@H](O)C1 [Ex. 1, (S)-2-((4-((1H-Indazol-5-yl)ethynyl)-[2,4′-bipyrimidin]-2′-yl)amino)-1-(3-hydroxypyrrolidin-1-yl)ethanone] | ** (50 to 150-fold selectivity for ROCK2)
10 to 100 | 0.01 to 0.099 | O[C@H]1CC[C@@H](Nc2nccc(-c3nccc(C#Cc4ccc5cncn5c4)n3)n2)CC1 [Ex. 96, (1s,4s)-4-((4-(Imidazo[1,5-a]pyridin-6-ylethynyl)-[2,4′-bipyrimidin]-2′-yl)amino)cyclohexanol] | ** (50 to 150-fold selectivity for ROCK2)
0.1 to 0.99 | 0.01 to 0.099 | CN1CCN(C(=O)CNc2nccc(-c3nccc(C#Cc4ccc5[nH]ncc5c4)n3)n2)CC1 [Ex. 73, 2-((4-((1H-Indazol-5-yl)ethynyl)-[2,4′-bipyrimidin]-2′-yl)amino)-1-(4-methylpiperazin-1-yl)ethanone] | * (<50-fold selectivity for ROCK2)
0.1 to 0.99 | < 0.01 | O[C@@H]1CC[C@H](Nc2nccc(-c3nccc(C#Cc4ccc5[nH]ncc5c4)n3)n2)C1 [Ex. 74, (1R,3S)-3-((4-((1H-indazol-5-yl)ethynyl)-[2,4′-bipyrimidin]-2′-yl)amino)cyclopentanol] | **** (>500-fold selectivity for ROCK2)
